Values belong to the compound of their own block, whether it stands above or below them.
Assay: Powder dissolution / in vitro release rate of the pure active compound, phosphate buffer pH 7.4 USP XXIV, paddle process 100 rpm
Type: physicochemical
Settings: for Rate of dissolution (in words) / Active compound dissolved after 5 min / Active compound dissolved after 8 min: 3 l scale crystallizate; for Amount released [%] after 2 min: Table 3, ibuprofen crystallized by displacement precipitation
Experimental: The measurements of the release rate was carried out according to USP XXIV.
• 1. 80 g of ibuprofen are dissolved in 100 ml of isopropanol at 40° C. Precipitation is then carried out by addition of ice water (450 ml/stirrer speed 50 rpm) during the course of 70 min. During this process cooling to 10° C. takes place. The crystals are recovered by filtration and dried in vacuo. […] 3.2 g of sucrose monolaurate are added as an additive. Precipitation is then carried out by addition of ice water (450 ml/stirrer speed 200 rpm) during the course of 70 min. During this process cooling to 10° C. takes place. The crystals are recovered by filtration, washed with ice water (3×50 ml) and dried in vacuo. […] 8 g of Tween®80 are added as an additive. Precipitation is then carried out by addition of ice water (450 ml/stirrer speed 200 rpm) during the course of 70 min. During this process cooling to 10° C. takes place. The crystals are recovered by filtration, washed with ice water (3×50 ml) and dried in vacuo. […] 80 g of ibuprofen are dissolved in 100 ml of isopropanol at 40° C. 3 g of sucrose monolaurate are added as an additive. Precipitation is then carried out by addition of ice water (450 ml/stirrer speed 200 rpm) during the course of 70 min; during this process, cooling to 10° C. takes place; the crystals are recovered by filtration, washed with ice water (3×150 ml) and dried in vacuo.

[1] = powder dissolution, pure active compound, phosphate buffer pH 7.4 USP XXIV
[2] = Table 1, ibuprofen powder, time 0 min
[3] = Table 1, ibuprofen powder, time 2 min
[4] = Table 1, ibuprofen powder, time 5 min
[5] = Table 1, ibuprofen powder, time 8 min
[6] = Table 1, ibuprofen powder, time 10 min
[7] = Table 1, ibuprofen powder, time 15 min
[8] = Table 1, ibuprofen powder, time 20 min
[9] = Table 2, ibuprofen powder, time 0
[10] = Table 2, ibuprofen powder, time 2
[11] = Table 2, ibuprofen powder, time 5
[12] = Table 2, ibuprofen powder, time 8
[13] = Table 2, ibuprofen powder, time 10
[14] = Table 2, ibuprofen powder, time 15
[15] = Table 2, ibuprofen powder, time 20

- Time after which a 100% release is seen [1]: 15 s
Structure (SMILES): COc1ccc2cc([C@H](C)C(=O)O)ccc2c1 [Example 2, naproxen]

- Rate of dissolution (in words): good rate of dissolution
Structure (SMILES): CC(C)Cc1ccc(C(C)C(=O)O)cc1 (stereo not drawn) [Example 15, ibuprofen]

- Time after which a 100% release / dissolution is seen [1]: approximately 5 min
Structure (SMILES): CC(C)Cc1ccc(C(C)C(=O)O)cc1 (stereo not drawn) [Example 18, ibuprofen]

- Time after which a 100% release / dissolution is seen [1]: 5 min
- Release / dissolution within (after) 2 minutes [1]: 85%
Structure (SMILES): CC(C)Cc1ccc(C(C)C(=O)O)cc1 (stereo not drawn) [Example 5, ibuprofen]

- Time after which a 100% release / dissolution is seen [1]: 5 min
- Release / dissolution within (after) 2 minutes [1]: 85%
Structure (SMILES): CC(C)Cc1ccc(C(C)C(=O)O)cc1 (stereo not drawn) [Example 4, ibuprofen]

- Rate of dissolution (in words): good rate of dissolution
- Active compound dissolved after 5 min: 87%
- Active compound dissolved after 8 min: 95%
Structure (SMILES): CC(C)Cc1ccc(C(C)C(=O)O)cc1 (stereo not drawn) [Example 12, ibuprofen]

- Amount released [%] after 2 min: 97.8%
Structure (SMILES): CC(C)Cc1ccc(C(C)C(=O)O)cc1 (stereo not drawn) [Suc. monolaurate + Kollicoat ® IR, ibuprofen]

- Time after which a 100% release / dissolution is seen [1]: 5 min
- Release / dissolution within (after) 2 minutes [1]: 85%
Structure (SMILES): CC(C)Cc1ccc(C(C)C(=O)O)cc1 (stereo not drawn) [Example 6, ibuprofen]

- Time after which a 100% release / dissolution is seen [1]: 15 min
Structure (SMILES): CC(C)Cc1ccc(C(C)C(=O)O)cc1 (stereo not drawn) [Example 1, ibuprofen]

- Amount released [%] after 2 min: 98.9%
Structure (SMILES): CC(C)Cc1ccc(C(C)C(=O)O)cc1 (stereo not drawn) [Suc. monolaurate + Klucel ® LF, ibuprofen]

- Amount released [%] [2]: 0.0%
- Amount released [%] [3]: 20.9%
- Amount released [%] [4]: 48.9%
- Amount released [%] [5]: 67.2%
- Amount released [%] [6]: 76.5%
- Amount released [%] [7]: 94.3%
- Amount released [%] [8]: 100.0%
Structure (SMILES): CC(C)Cc1ccc(C(C)C(=O)O)cc1 (stereo not drawn) [Solvent change without addition, ibuprofen]

- Amount released [%] [2]: 0.0%
- Amount released [%] [3]: 15.1%
- Amount released [%] [4]: 36.9%
- Amount released [%] [5]: 59.5%
- Amount released [%] [6]: 73.9%
- Amount released [%] [7]: 98.0%
- Amount released [%] [8]: 99.0%
- Amount released [%] [9]: 0.0%
- Amount released [%] [10]: 15.1%
- Amount released [%] [11]: 36.9%
- Amount released [%] [12]: 59.5%
- Amount released [%] [13]: 73.9%
- Amount released [%] [14]: 98.0%
- Amount released [%] [15]: 99.0%
- Amount released [%] after 2 min: 15.1%
- Time after which a 100% release / dissolution is seen [1]: > 15 min
- Release / dissolution within (after) 2 minutes [1]: < 20%
Structure (SMILES): CC(C)Cc1ccc(C(C)C(=O)O)cc1 (stereo not drawn) [Commercial article, ibuprofen]

- Rate of dissolution (in words): comparatively good rate of dissolution
- Active compound dissolved after 5 min: 81%
- Active compound dissolved after 8 min: 90%
Structure (SMILES): CC(C)Cc1ccc(C(C)C(=O)O)cc1 (stereo not drawn) [Example 11, ibuprofen]

- Rate of dissolution (in words): good rate of dissolution
- Active compound dissolved after 5 min: 92%
- Active compound dissolved after 8 min: 100%
Structure (SMILES): CC(C)Cc1ccc(C(C)C(=O)O)cc1 (stereo not drawn) [Example 13, ibuprofen]

- Time after which a 100% release / dissolution is seen [1]: 5 min
- Release / dissolution within (after) 2 minutes [1]: 85%
Structure (SMILES): CC(C)Cc1ccc(C(C)C(=O)O)cc1 (stereo not drawn) [Example 7, ibuprofen]

- Amount released [%] after 2 min: 100.1%
Structure (SMILES): CC(C)Cc1ccc(C(C)C(=O)O)cc1 (stereo not drawn) [Suc. monolaurate + trehalose, ibuprofen]

- Amount released [%] [2]: 0.0%
- Amount released [%] [3]: 85.2%
- Amount released [%] [4]: 98.8%
- Amount released [%] [5]: 100.0%
- Amount released [%] [6]: 100.0%
- Amount released [%] [7]: 100.0%
- Amount released [%] [8]: 100.0%
- Amount released [%] [9]: 0.0%
- Amount released [%] [10]: 85.9%
- Amount released [%] [11]: 98.4%
- Amount released [%] [12]: 99.5%
- Amount released [%] [13]: 99.9%
- Amount released [%] [14]: 100.7%
- Amount released [%] [15]: 100.6%
- Amount released [%] after 2 min: 85.2%
Structure (SMILES): CC(C)Cc1ccc(C(C)C(=O)O)cc1 (stereo not drawn) [Additive: sucrose monolaurate, ibuprofen]

- Amount released [%] after 2 min: 100.4%
Structure (SMILES): CC(C)Cc1ccc(C(C)C(=O)O)cc1 (stereo not drawn) [Suc. monolaurate + dextran 200, ibuprofen]

- Rate of dissolution (in words): good rate of dissolution
Structure (SMILES): CC(C)Cc1ccc(C(C)C(=O)O)cc1 (stereo not drawn) [Example 14, ibuprofen]

- Amount released [%] after 2 min: 100.8%
Structure (SMILES): CC(C)Cc1ccc(C(C)C(=O)O)cc1 (stereo not drawn) [Suc. monolaurate + HPC, ibuprofen]
